Source: patent US20020010182A1, “Piperazine derivatives as tachykinin antagonists” (FUJISAWA PHARMACEUTICAL CO., LTD., priority 1995, published 2002)

Legend:
emesis in the ferret = assay: Emesis in the ferret (copper sulfate induced); assay type: in vivo; details: i.p. dose of 3.2 and/or 10 mg/kg, 30 min before intra-gastric copper sulfate (40 mg/kg/ml); retching and vomiting observed for 30 min
Experimental: Individually housed adult male ferrets (Marshall Farms, 1.4 to 2.2 kg) were given an i.p. injection of a solution containing a test compound 30 Min later the emetic responses (retching and vomiting) were induced by administration of intra-gastric copper sulfate (40 mg/kg/ml) and observed for the next 30 min. The timing and number of retches and vomits observed were recorded for each animal. An individual animal was tested with at least 10 days between experiments.

h-NK1 receptors = molecular target: T1, h-NK1 receptors (Homo sapiens, UniProt P25103); assay: Evaluation of NK1 antagonist transport efficiency to the central nervous system using a h-NK1 receptor binding assay; details: 5 min, brain extract of male SD rats 5 min after i.v. injection of test compound, CHO cell membranes expressing h-NK1, read-out: inhibition rate of 125I-BH-Substance P binding to h-NK1 receptors
T1 construct: expressed in transfected cells; host or cells: CHO cells (permanent expression), crude cell membranes
How it was run: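 Male SD rats dosed i.v. at 1 mg/kg; brain removed 5 min later after saline perfusion, homogenized, extracted with ethyl acetate. Extract competed against 0.1 nM 125I-BH-Substance P on CHO h-NK1 membranes, 22 °C, 90 min, pH 7.4 Mn2+ buffer; specific binding defined with 3 μM unlabeled Substance P.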

T1 sequence (P25103 whole entry): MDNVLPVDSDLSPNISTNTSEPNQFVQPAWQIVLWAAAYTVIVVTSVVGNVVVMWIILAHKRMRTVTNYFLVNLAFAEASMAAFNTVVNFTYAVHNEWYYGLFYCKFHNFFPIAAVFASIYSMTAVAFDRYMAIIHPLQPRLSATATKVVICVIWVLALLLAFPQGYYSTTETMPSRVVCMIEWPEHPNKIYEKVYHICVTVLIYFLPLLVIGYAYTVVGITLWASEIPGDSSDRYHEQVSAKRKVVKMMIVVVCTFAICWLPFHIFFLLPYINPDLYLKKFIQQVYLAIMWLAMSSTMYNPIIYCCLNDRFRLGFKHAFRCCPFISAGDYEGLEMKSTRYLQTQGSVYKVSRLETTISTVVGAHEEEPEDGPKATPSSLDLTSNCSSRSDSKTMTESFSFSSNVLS

Row | inhibition at 1 mg/kg (h-NK1 receptors) [%] | melting point | SMILES | inhibition rate of emesis in the ferret (emesis in the ferret) [%]
1 | > 80 | 272 °C (dec.) | Cc1ccc(C[C@@H]2CN(CCCN3CCSCC3)CCN2C(=O)c2cc(C(F)(F)F)cc(C(F)(F)F)c2)cc1C.Cl.Cl [24-(2), (2R)-1-[3,5-Bis(trifluoromethyl)benzoyl]-2-(3,4-dimethylbenzyl)-4-(3-thiomorpholinopropyl) piperazine dihydrochloride] | 100
2 | > 80 | 170 to 182 °C | Cl.Cl.O=C(c1cc(C(F)(F)F)cc(C(F)(F)F)c1)N1CCN(CCN2CCSCC2)C[C@H]1Cc1c[nH]c2ccccc12 [Example 37-(6), (2R)-4-(2-Thiomorpholinoethyl)-1-[3,5-bis (trifluoromethyl)benzoyl]-2-(1H-indol-3-ylmethyl) piperazine dihydrochloride] | 100

Row | SMILES | inhibition at 1 mg/kg (h-NK1 receptors) [%] | melting point | inhibition rate of emesis in the ferret (emesis in the ferret) [%]
3 | Cl.Cl.O=C(c1cc(C(F)(F)F)cc(C(F)(F)F)c1)N1CCN(CCCN2CC3CCC(CC3)C2)C[C@H]1Cc1c[nH]c2ccccc12 [Example 22, (2R)-4-[3-(3-azabicyclo(3.2.2]non-3-yl)propyl]-1-[3,5-bis(trifluoromethyl)benzoyl]-2-(1H-indol-3-ylmethyl) piperazine dihydrochloride] | > 80 | 194 to 202 °C | 100
